Results from patent US8173638B2 (Boehringer Ingelheim International GmbH, priority 2006, dated 2012).
Where two headings read alike, the source gives them in different places.

Molecular target: T1, human CB2R (Homo sapiens, UniProt P34972)
T1 construct: host or cells: CHO cells
Assay: CB2R mediated modulation of cAMP synthesis
Assay type: cell-based
Settings: for Emax: 0.5 h, read-out: Agonist Efficacy (%)
In short: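 CHO cells expressing human CB2R treated with compound 30 min at 37 °C in buffer with 1 mM IBMX, 0.25% BSA and 10 uM forskolin. cAMP measured after lysis by DiscoverX-XS kit.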

[1] = CHO cells expressing human CB2R, cAMP inhibited by 1 uM CP55940 defined as 100%

T1 sequence (P34972 whole entry): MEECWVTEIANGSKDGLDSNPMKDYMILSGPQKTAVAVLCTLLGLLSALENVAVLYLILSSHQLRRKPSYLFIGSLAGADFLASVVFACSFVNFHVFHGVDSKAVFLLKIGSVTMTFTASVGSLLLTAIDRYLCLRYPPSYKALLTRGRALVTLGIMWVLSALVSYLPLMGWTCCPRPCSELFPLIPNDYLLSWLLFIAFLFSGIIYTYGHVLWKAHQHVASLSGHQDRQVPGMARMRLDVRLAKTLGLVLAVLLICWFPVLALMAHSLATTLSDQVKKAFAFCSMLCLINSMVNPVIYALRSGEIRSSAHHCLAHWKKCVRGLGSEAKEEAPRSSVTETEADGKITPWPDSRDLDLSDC

## CC(C)(C)c1ccc(NC(=O)N2CCCN(C(=O)c3ccc(C#N)cc3)CC2)cc1 [Compound 112, 4-(4-Cyano-benzoyl)-[1,4]diazepane-1-carboxylic acid (4-tert-butyl-phenyl)-amide]
[1]
  Emax: 109%
read-out: hCB2 cAMP EC50
  EC50: 19 nM

## CC(C)(C)c1ccc(NC(=O)N2CCCN(C(=O)CN3CCSCC3)CC2)cc1 [Compound 121, 4-(2-Thiomorpholin-4-yl-acetyl)-[1,4]diazepane-1-carboxylic acid (4-tert-butyl-phenyl)-amide]
[1]
  Emax: 103%
read-out: hCB2 cAMP EC50
  EC50: 36 nM

## Cc1ccc(C(=O)N2CCCN(C(=O)Nc3ccc(C(C)(C)C)cc3)CC2)cc1 [Compound 122, 4-(4-Methyl-benzoyl)-[1,4]diazepane-1-carboxylic acid (4-tert-butyl-phenyl)-amide]
[1]
  Emax: 101%
read-out: hCB2 cAMP EC50
  EC50: 100 nM

## O=C(Nc1ccc(C(F)(F)F)cc1)N1CCCN(C(=O)c2ccc(C(F)(F)F)cc2)CC1 [Compound 127, 4-(4-Trifluoromethyl-benzoyl)-[1,4]diazepane-1-carboxylic acid (4-trifluomethyl-phenyl)-amide]
[1]
  Emax: 100%
read-out: hCB2 cAMP EC50
  EC50: 75 nM

## O=C(Nc1ccc(C(F)(F)F)cc1)N1CCCN(C(=O)C2CCCCC2)CC1 [Compound 128, 4-Cyclohexanecarbonyl-[1,4]diazepane-1-carboxylic acid (4-trifluoromethyl-phenyl)-amide]
[1]
  Emax: 107%
read-out: hCB2 cAMP EC50
  EC50: 71 nM

## O=C(CC1CCCC1)N1CCCN(C(=O)Nc2ccc(Br)c(C(F)(F)F)c2)CC1 [Compound 132, 4-(2-Cyclopentyl-acetyl)-[1,4]diazepane-1-carboxylic acid (4-bromo-3-trifluoromethyl-phenyl)-amide]
[1]
  Emax: 104%
read-out: hCB2 cAMP EC50
  EC50: 13 nM

## CCC(C)c1ccc(NC(=O)N2CCCN(C(=O)C3CCOCC3)CC2)cc1 (centres unmarked) [Compound 133, 4-(Tetrahydro-pyran-4-carbonyl)-[1,4]diazepane-1-carboxylic acid (4-sec-butyl-phenyl)-amide]
[1]
  Emax: 97%
read-out: hCB2 cAMP EC50
  EC50: 7.8 nM

## CC(C)(C)c1cc(NC(=O)N2CCCN(C(=O)CC3CCCC3)CC2)no1 [Compound 140, 4-(2-Cyclopentyl-acetyl)-[1,4]diazepane-1-carboxylic acid (5-tert-butyl-isoxazol-3-yl)-amide]
  EC50: 12 nM
CHO
  Emax: 103%

## CC(C)(C)c1cc(NC(=O)N2CCCN(C(=O)c3ccc(Cl)cc3)CC2)no1 [Compound 141, 4-(4-Chloro-benzoyl)-[1,4]diazepane-1-carboxylic acid (5-tert-butyl-isoxazol-3-yl)-amide]
[1]
  Emax: 101%
read-out: hCB2 cAMP EC50
  EC50: 11 nM

## CC(C)(C)c1cc(NC(=O)N2CCCN(C(=O)C3CCOCC3)CC2)no1 [Compound 142, 4-(Tetrahydro-pyran-4-carbonyl)-[1,4]diazepane-1-carboxylic acid (5-tert-butyl-isoxazol-3-yl)-amide]
CHO
  Emax: 110%

## CC(C)(C)c1cc(NC(=O)N2CCCN(C(=O)C3CCC(F)(F)CC3)CC2)no1 [Compound 144, 4-(4,4-Difluoro-cyclohexanecarbonyl)-[1,4]diazepane-1-carboxylic acid (5-tert-butyl-isoxazol-3-yl)-amide]
  EC50: 1.3 nM
CHO
  Emax: 98%

## CC(C)(C)c1cc(NC(=O)N2CCCN(C(=O)C3CCCCCC3)CC2)no1 [Compound 152, 4-Cycloheptanecarbonyl-[1,4]diazepane-1-carboxylic acid (5-tert-butyl-isoxazol-3-yl)-amide]
[1]
  Emax: 104%
read-out: hCB2 cAMP EC50
  EC50: 19 nM

## CC(C)(C)c1cc(NC(=O)N2CCCN(C(=O)C3CCCCC3)CC2)no1 [Compound 153, 4-Cyclohexanecarbonyl-[1,4]diazepane-1-carboxylic acid (5-tert-butyl-isoxazol-3-yl)-amide]
[1]
  Emax: 104%
read-out: hCB2 cAMP EC50
  EC50: 3.7 nM

## CC(C)(C)c1cc(NC(=O)N2CCCN(C(=O)c3ccc(C(F)(F)F)cc3)CC2)no1 [Compound 154, 4-(4-Trifluoromethyl-benzoyl)-[1,4]diazepane-1-carboxylic acid (5-tert-butyl-isoxazol-3-yl)-amide]
  EC50: 1.5 nM
CHO
  Emax: 103%

## COC1CCC(C(=O)N2CCCN(C(=O)Nc3cc(C(C)(C)C)on3)CC2)CC1 (centres unmarked) [Compound 155, 4-(4-Methoxy-cyclohexanecarbonyl)-[1,4]diazepane-1-carboxylic acid (5-tert-butyl-isoxazol-3-yl)-amide]
CHO
  Emax: 101%
read-out: hCB2 cAMP EC50
  EC50: 110 nM

## CC(=O)NC1CCC(C(=O)N2CCCN(C(=O)Nc3cc(C(C)(C)C)on3)CC2)CC1 (centres unmarked) [Compound 160, 4-(4-Acetylamino-cyclohexanecarbonyl)-[1,4]diazepane-1-carboxylic acid (5-tert-butyl-isoxazol-3-yl)-amide]
[1]
  Emax: 107%
read-out: hCB2 cAMP EC50
  EC50: 68 nM

## O=C(Nc1nc(C2CC2)cs1)N1CCCN(C(=O)c2ccc(Cl)cc2)CC1 [Compound 166, 4-(4-Chloro-benzoyl)-[1,4]diazepane-1-carboxylic acid (4-cyclopropyl-thiazol-2-yl)-amide]
[1]
  Emax: 91%
read-out: hCB2 cAMP EC50
  EC50: 90 nM

## O=C(Nc1nc(-c2ccccc2)cs1)N1CCCN(C(=O)c2ccc(Cl)cc2)CC1 [Compound 167, 4-(4-Chloro-benzoyl)-[1,4]diazepane-1-carboxylic acid (4-phenyl-thiazol-2-yl)-amide]
[1]
  Emax: 102%
read-out: hCB2 cAMP EC50
  EC50: 26 nM

## O=C(Nc1nc2c(s1)CCCC2)N1CCCN(C(=O)c2ccc(Cl)cc2)CC1 [Compound 168, 4-(4-Chloro-benzoyl)-[1,4]diazepane-1-carboxylic acid (4,5,6,7-tetrahydro-benzothiazol-2-yl)-amide]
[1]
  Emax: 101%
read-out: hCB2 cAMP EC50
  EC50: 3.6 nM

## Cc1nc(NC(=O)N2CCCN(C(=O)C3CCC(F)(F)CC3)CC2)sc1C(C)(C)C [Compound 169, 4-(4,4-Difluoro-cyclohexanecarbonyl)-[1,4]diazepane-1-carboxylic acid (5-tert-butyl-4-methyl-thiazol-2-yl)-amide]
[1]
  Emax: 95%
read-out: hCB2 cAMP EC50
  EC50: 0.7 nM

## CC(C)(C)c1cnc(NC(=O)N2CCCN(C(=O)C3CCC(O)CC3)CC2)s1 (centres unmarked) [Compound 173, 4-(4-Hydroxy-cyclohexanecarbonyl)-[1,4]diazepane-1-carboxylic acid (5-tert-butyl-thiazol-2-yl)-amide]
[1]
  Emax: 111%
read-out: hCB2 cAMP EC50
  EC50: 17 nM

## O=C(Nc1nc(-c2ccccc2)cs1)N1CCCN(C(=O)C2CCC(O)CC2)CC1 (centres unmarked) [Compound 174, 4-(4-Hydroxy-cyclohexanecarbonyl)-[1,4]diazepane-1-carboxylic acid (4-phenyl-thiazol-2-yl)-amide]
  EC50: 43 nM
CHO
  Emax: 102%

## Cc1nc(NC(=O)N2CCCN(C(=O)C3CCOCC3)CC2)sc1C(C)(C)C [Compound 183, 4-(Tetrahydro-pyran-4-carbonyl)-[1,4]diazepane-1-carboxylic acid (5-tert-butyl-4-methyl-thiazol-2-yl)-amide]
[1]
  Emax: 100%
read-out: hCB2 cAMP EC50
  EC50: 18 nM

## Cc1sc(NC(=O)N2CCCN(C(=O)C3CCOCC3)CC2)nc1C(C)(C)C [Compound 186, 4-(Tetrahydro-pyran-4-carbonyl)-[1,4]diazepane-1-carboxylic acid (4-tert-butyl-5-methyl-thiazol-2-yl)-amide]
[1]
  Emax: 91%
read-out: hCB2 cAMP EC50
  EC50: 58 nM

## CCC(C)c1cc(NC(=O)N2CCCN(C(=O)C3CCOCC3)CC2)on1 (centres unmarked) [Compound 193, 4-(Tetrahydro-pyran-4-carbonyl)-[1,4]diazepane-1-carboxylic acid (3-sec-butyl-isoxazol-5-yl)-amide]
  EC50: 41 nM
CHO
  Emax: 106%

## CCC(C)c1ccc(NC(=O)N2CCCN(C(=O)C3CCOCC3)CC2)nc1 (centres unmarked) [Compound 196, 4-(Tetrahydro-pyran-4-carbonyl)-[1,4]diazepane-1-carboxylic acid (5-sec-butyl-pyridin-2-yl)-amide]
[1]
  Emax: 77%
read-out: hCB2 cAMP EC50
  EC50: 47 nM

## CC(C)(C)c1cc(NC(=O)N2CCCN(C(=O)N3CCCCC3)CC2)no1 [Compound 198, 4-(Piperidine-1-carbonyl)-[1,4]diazepane-1-carboxylic acid (5-tert-butyl-isoxazol-3-yl)-amide]
  EC50: 47 nM
CHO
  Emax: 99%

## CC(C)(C)c1cc(NC(=O)N2CCCN(C(=O)N3CCSCC3)CC2)no1 [Compound 203, 4-(Thiomorpholine-4-carbonyl)-[1,4]diazepane-1-carboxylic acid (5-tert-butyl-isoxazol-3-yl)-amide]
[1]
  Emax: 107%
read-out: hCB2 cAMP EC50
  EC50: 62 nM

## CC(C)(C)c1cc(NC(=O)N2CCCN(C(=O)N3CCC(F)(F)CC3)CC2)no1 [Compound 206, 4-(4,4-Difluoro-piperidine-1-carbonyl)-[1,4]diazepane-1-carboxylic acid (5-tert-butyl-isoxazol-3-yl)-amide]
  EC50: 16 nM
CHO
  Emax: 105%

## CC(C)(C)c1cc(NC(=O)N2CCCN(C(=O)N3CCS(=O)(=O)CC3)CC2)on1 [Compound 211, 4-(1,1-Dioxo-1 λ^6-thiomorpholine-4-carbonyl)-[1,4]diazepane-1-carboxylic acid (3-tert-butyl-isoxazol-5-yl)-amide]
[1]
  Emax: 100%
read-out: hCB2 cAMP EC50
  EC50: 95 nM

## CC(C)(C)c1cc(NC(=O)N2CCCN(C(=O)NC3CCCCC3)CC2)no1 [Compound 212, [1,4]Diazepane-1,4-dicarboxylic acid 1-[(5-tert-butyl-isoxazol-3-yl)-amide] 4-cyclohexylamide]
  EC50: 70 nM
CHO
  Emax: 102%

## CC(C)(C)c1cnc(NC(=O)N2CCCN(C(=O)N3CCS(=O)(=O)CC3)CC2)s1 [Compound 214, 4-(1,1-Dioxo-1 λ^6-thiomorpholine-4-carbonyl)-[1,4]diazepane-1-carboxylic acid (5-tert-butyl-thiazol-2-yl)-amide]
[1]
  Emax: 95%
read-out: hCB2 cAMP EC50
  EC50: 20 nM

## CC(C)(C)c1cc(NC(=O)N2CCCN(C(=O)NC3CCCC3)CC2)no1 [Compound 217, [1,4]Diazepane-1,4-dicarboxylic acid 1-[(5-tert-butyl-isoxazol-3-yl)-amide] 4-cyclopentylamide]
  EC50: 32 nM
CHO
  Emax: 100%
